# Measured values taken from PubChem BioAssay AID1919001 (Molecular Pharmacology Branch, DTP, NCI, 2023).
# “And” between values parts separate entries of the source, which are not always exact repeats. Equal entries are not always repeated.
# System: 699152-130-R-J1-PDC complex spheroid growth
# Assay: Anticancer human tumor 699152-130-R-J1-PDC patient-derived pancreatic carcinoma cell line growth inhibition [AhR]
# Conditions: for IC50: curve of first compound; for viability, T/C: stronger effect = lower value
# From the text: Multicellular complex tumor spheroid response to aryl hydrocarbon receptor antagonists in combination with a variety of drugs and investigational agents in selected tumor cell lines
# The current study was undertaken to assess response to aryl hydrocarbon receptor antagonists in combination with standard-of-care drugs and investigational agents in solid tumor complex spheroid models. Complex spheroids include a stromal component modeled by human endothelial cells (HUVEC) and fibroblasts modeled by human mesenchymal stem cells (MSCs). The concentration ranges selected for each drug and investigational agent were based upon clinically achievable concentrations if the clinical Cmax of the agent was known.
# Compounds. The drugs and investigational agents: BAY 2416964 (NSC825713), GNF351 (NSC835774), CH-223191 (NSC835775), CPI-455 (NSC825282), aza-TdCyd (NSC777586), decitabine (NSC127716), belinostat (NSC758774), entinostat (NSC756642), pevonedistat (NSC761192), tazemetostat (NSC777109), talazoparib (NSC765396), olaparib (NSC753686), selinexor (NSC780203), nedisertib (M3814, NSC802822), bortezomib (NSC756655), venetoclax (NSC766270), doxorubicin (NSC123127), elimusertib (BAY189344, NSC800525), ceralasertib (AZD6738, NSC777638), TAK-243 (NSC785004), alisertib (NSC759677), etoposide (NSC141540), topotecan (NSC609699), eribulin (NSC707389), gemcitabine (NSC613327), carboplatin (NSC241240), cisplatin (NSC119875), and SN-38 (NSC673596) were obtained from the National Cancer Institute (NCI) Developmental Therapeutics Program Chemical Repository (32). The FDA-approved anticancer drug set is available from the Developmental Therapeutics Program at https://dtp.cancer.gov/organization/dscb/obtaining/available plates.htm. […] The stock solutions were prepared in dimethyl sulfoxide (DMSO, Sigma-Aldrich, St. Louis, MO, cat. D2650), except for the platinum compounds which were prepared in saline (Quality Biological, Gaithersburg, MD, cat. 114-055-101), at 800-fold the tested concentration and stored at -70 degrees C prior to their use. All drugs and investigational agents were tested over a range starting from a high concentration at or near the clinical Cmax and decreasing in half-log increments. If the clinical Cmax for an agent had not been determined, the highest concentration tested was 10 microM (Table 1).
# Cell Culture. All cells were maintained in an incubator at 37 degrees C and 5% CO2 with 95% humidity. The PDC lines were cultured according to standard operating procedures established by the NCI PDMR (https://pdmr.cancer.gov). Briefly, all PDCs were thawed and cultured in Matrigel-coated flasks prepared with a working solution of 1X Ham's F-12 nutrient mix, without supplementation (Invitrogen, Waltham, MA, cat. 11765054), 100 U/mL penicillin-streptomycin (Invitrogen, cat. 15140122), and 2.5% Matrigel (Corning Inc., Corning, NY, cat. 354248) for the first three passages. All PDCs were cultured in complete DMEM/F-12 media containing advanced DMEM/F-12 (Invitrogen, cat. 12634028), 4.9% defined fetal bovine serum, heat inactivated (HyClone Laboratories Inc., Logan, UT, cat. SH30070.03HI), 389 ng/mL hydrocortisone (Sigma-Aldrich, cat. H4001), 9.7 ng/mL human EGF recombinant protein (Invitrogen, cat. PHG0313), 23.4 microg/mL adenine (Sigma-Aldrich, cat. A2786), 97.3 U/mL penicillin-streptomycin (Invitrogen, cat. 15140122), 1.9 mM L-glutamine (Invitrogen, cat. 25030081), and 9.7 microM Y-27632 dihydrochloride (Tocris Bioscience, Bristol, United Kingdom, cat. 1254). The PDCs were cultured in complete DMEM/F12 media without 10 microM Y-27632 dihydrochloride for at least two passages prior to the screen. The established cell lines NCI-H1341 and […] were cultured in DMEM/F-12, HEPES (Invitrogen, cat. 11330032), 5% defined fetal bovine serum (HyClone Laboratories Inc., cat. SH30070.03), ITS premix universal culture supplement [insulin (5 microg/mL), transferrin (5 microg/mL), and selenious acid (5 ng/mL)] […]
# [1] = second compound 0.1 µM, first compound 0.00316 µM
# [2] = second compound 0.1 µM, first compound 0.01 µM
# [3] = second compound 0.1 µM, first compound 0.0316 µM
# [4] = second compound 0.1 µM, first compound 0.1 µM
# [5] = second compound 0.316 µM, first compound 0.00316 µM
# [6] = second compound 0.316 µM, first compound 0.01 µM
# [7] = second compound 0.316 µM, first compound 0.0316 µM
# [8] = second compound 0.316 µM, first compound 0.1 µM
# [9] = second compound 1 µM, first compound 0.00316 µM
# [10] = second compound 1 µM, first compound 0.01 µM
# [11] = second compound 1 µM, first compound 0.0316 µM
# [12] = second compound 1 µM, first compound 0.1 µM
# [13] = second compound 3.16 µM, first compound 0.00316 µM
# [14] = second compound 3.16 µM, first compound 0.01 µM
# [15] = second compound 3.16 µM, first compound 0.0316 µM
# [16] = second compound 3.16 µM, first compound 0.1 µM
# [17] = second compound 10 µM, first compound 0.00316 µM
# [18] = second compound 10 µM, first compound 0.01 µM
# [19] = second compound 10 µM, first compound 0.0316 µM
# [20] = second compound 10 µM, first compound 0.1 µM
# [21] = second compound 0.1 µM, first compound 0.316 µM
# [22] = second compound 0.1 µM, first compound 1 µM
# [23] = second compound 0.1 µM, first compound 3.16 µM
# [24] = second compound 0.1 µM, first compound 10 µM
# [25] = second compound 0.316 µM, first compound 0.316 µM
# [26] = second compound 0.316 µM, first compound 1 µM
# [27] = second compound 0.316 µM, first compound 3.16 µM
# [28] = second compound 0.316 µM, first compound 10 µM
# [29] = second compound 1 µM, first compound 0.316 µM
# [30] = second compound 1 µM, first compound 1 µM
# [31] = second compound 1 µM, first compound 3.16 µM
# [32] = second compound 1 µM, first compound 10 µM
# [33] = second compound 3.16 µM, first compound 0.316 µM
# [34] = second compound 3.16 µM, first compound 1 µM
# [35] = second compound 3.16 µM, first compound 3.16 µM
# [36] = second compound 3.16 µM, first compound 10 µM
# [37] = second compound 10 µM, first compound 0.316 µM
# [38] = second compound 10 µM, first compound 1 µM
# [39] = second compound 10 µM, first compound 3.16 µM
# [40] = second compound 10 µM, first compound 10 µM
# 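Further: compound exposure lasted 7 days after spheroids had grown for 3 days.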
Structure (SMILES),IC50 (second compound 0.1 µM) [µM],IC50 (second compound 0.316 µM) [µM],IC50 (second compound 1 µM) [µM],IC50 (second compound 3.16 µM) [µM],IC50 (second compound 10 µM) [µM],"viability, T/C [3] [%]","viability, T/C [4] [%]","viability, T/C [7] [%]","viability, T/C [8] [%]","viability, T/C [11] [%]","viability, T/C [12] [%]","viability, T/C [15] [%]","viability, T/C [16] [%]","viability, T/C [19] [%]","viability, T/C [20] [%]","viability, T/C [21] [%]","viability, T/C [22] [%]","viability, T/C [25] [%]","viability, T/C [26] [%]","viability, T/C [29] [%]",further results
O=C(C=Cc1cccc(S(=O)(=O)Nc2ccccc2)c1)NO + Cc1ccccc1N=Nc1ccc(NC(=O)c2ccnn2C)c(C)c1,> 10,> 10,> 10,> 10,> 10,91.2,109,87.9,99.4,97.5,118,103,102,109,114,111,110,106,114,111,"viability, T/C [23]: 108%; viability, T/C [24]: 97.8%; viability, T/C [27]: 97.3%; viability, T/C [28]: 95.4%; viability, T/C [30]: 116%; viability, T/C [31]: 101%; viability, T/C [32]: 96.2%; viability, T/C [33]: 107%; viability, T/C [34]: 115%; viability, T/C [35]: 103%; viability, T/C [36]: 81.5%; viability, T/C [37]: 116%; viability, T/C [38]: 122%; viability, T/C [39]: 97%; viability, T/C [40]: 85.2%"
Nc1ccn(C2OC(CO)C(O)C2(F)F)c(=O)n1 (stereo unspecified) + Cc1cncc(-c2nc(NCCc3c[nH]c4ccccc34)c3ncn(C(C)C)c3n2)c1,1.24,1.3,2.51,0.864,< 0.0316,76.3,69.2,81.3,63.6,72.6,67.9,74.7,71.1,47.8,50.9,62.3,49.4,56.8,56.1,58.6,"viability, T/C [23]: 46.6%; viability, T/C [24]: 42.8%; viability, T/C [27]: 45.3%; viability, T/C [28]: 40.6%; viability, T/C [30]: 53.8%; viability, T/C [31]: 50.5%; viability, T/C [32]: 43.8%; viability, T/C [33]: 55.6%; viability, T/C [34]: 50.8%; viability, T/C [35]: 45.4%; viability, T/C [36]: 49.8%; viability, T/C [37]: 40.5%; viability, T/C [38]: 46%; viability, T/C [39]: 39.4%; viability, T/C [40]: 35.5%"
Nc1ccn(C2OC(CO)C(O)C2(F)F)c(=O)n1 (stereo unspecified),,,,,,,,,,,,,,,,,,,,,"viability, T/C (compound 0.0316 µM): 74.1% and 75.2% and 60.5%; viability, T/C (compound 0.1 µM): 65.7% and 65.9% and 56.8%; viability, T/C (compound 0.316 µM): 48.5% and 56.9% and 47.4%; viability, T/C (compound 1 µM): 51.8% and 50.9% and 45.2%; viability, T/C (compound 3.16 µM): 42.4% and 53.5% and 42.6%; viability, T/C (compound 10 µM): 39.8% and 48.5% and 36.5%"

# More lines, main results first:
IC50 (second compound 0.1 µM) [µM],IC50 (second compound 0.316 µM) [µM],IC50 (second compound 1 µM) [µM],IC50 (second compound 3.16 µM) [µM],IC50 (second compound 10 µM) [µM],Structure (SMILES),"viability, T/C [3] [%]","viability, T/C [4] [%]","viability, T/C [7] [%]","viability, T/C [8] [%]","viability, T/C [11] [%]","viability, T/C [12] [%]","viability, T/C [15] [%]","viability, T/C [16] [%]","viability, T/C [19] [%]","viability, T/C [20] [%]","viability, T/C [21] [%]","viability, T/C [22] [%]","viability, T/C [25] [%]","viability, T/C [26] [%]","viability, T/C [29] [%]",further results
> 0.1,> 0.1,> 0.1,> 0.1,< 0.000316,Cn1ncnc1C1c2n[nH]c(=O)c3cc(F)cc(c23)NC1c1ccc(F)cc1 (stereo unspecified) + Cc1cncc(-c2nc(NCCc3c[nH]c4ccccc34)c3ncn(C(C)C)c3n2)c1,105,104,102,104,111,124,114,99.1,28,22.5,,,,,,"viability, T/C (second compound 0.1 µM, first compound 0.000316 µM): 95.2%; viability, T/C (second compound 0.1 µM, first compound 0.001 µM): 117%; viability, T/C [1]: 109%; viability, T/C [2]: 115%; viability, T/C (second compound 0.316 µM, first compound 0.000316 µM): 113%; viability, T/C (second compound 0.316 µM, first compound 0.001 µM): 115%; viability, T/C [5]: 125%; viability, T/C [6]: 115%; viability, T/C (second compound 1 µM, first compound 0.000316 µM): 125%; viability, T/C (second compound 1 µM, first compound 0.001 µM): 117%; viability, T/C [9]: 119%; viability, T/C [10]: 116%; viability, T/C (second compound 3.16 µM, first compound 0.000316 µM): 128%; viability, T/C (second compound 3.16 µM, first compound 0.001 µM): 114%; viability, T/C [13]: 118%; viability, T/C [14]: 116%; viability, T/C (second compound 10 µM, first compound 0.000316 µM): 26.1%; viability, T/C (second compound 10 µM, first compound 0.001 µM): 28.6%; viability, T/C [17]: 34.2%; viability, T/C [18]: 26.6%"
> 1,> 1,> 1,> 1,> 1,CC1COCCN1c1cc(-c2ccnn2C)c2ccnc(-c3ccn[nH]3)c2n1 (stereo unspecified) + Cc1ccccc1N=Nc1ccc(NC(=O)c2ccnn2C)c(C)c1,94.6,84.1,101,82.7,101,93.5,101,89.3,103,116,83.3,62.6,68.3,61.9,79.5,"viability, T/C [1]: 105%; viability, T/C [2]: 100%; viability, T/C [5]: 87.8%; viability, T/C [6]: 96.9%; viability, T/C [9]: 99.8%; viability, T/C [10]: 110%; viability, T/C [30]: 66.9%; viability, T/C [13]: 105%; viability, T/C [14]: 110%; viability, T/C [33]: 72.1%; viability, T/C [34]: 60.1%; viability, T/C [17]: 119%; viability, T/C [18]: 128%; viability, T/C [37]: 80.8%; viability, T/C [38]: 65.9%"
